The values that follow come from patent publication US10927136B2, “Phosphorus prodrugs of pyrazolo-substituted pyrimidine sGC stimulators” (Cyclerion Therapeutics, Inc., priority 2016, dated 2021).

A short description of series [1]: Rat PK following intravenous and oral dosing. Type of series: in vivo, male Sprague-Dawley rats. How it is done: PK in rats was determined following intravenous and oral dosing.
For the intravenous (IV) and oral (PO) experiments, two groups of 4 male Sprague-Dawley rats each were used. The PO group was dosed with 3.0 mg/kg of Compound I-1 formulated as a solution in phosphate buffered saline (PBS). The IV group was dosed with 1.0 mg/kg of Compound I-1 formulated as a solution in phosphate buffered saline (PBS). IV doses were administered through an indwelling catheter in the jugular vein. Following dose administration, the catheter was flushed with ca. 0.25 mL of saline. PO doses were delivered to the stomach using a syringe and gavage tube. Following oral dosage administration, the gavage tube was flushed with approximately 0.5 mL of water to ensure complete delivery of the full dose.
Plasma samples were collected as follows: for the IV and PO experiments, samples were collected at 5 min, 15 min, 30 min, 1 hour, 2 hours, 4 hours, 6 hours, 8 hours, 12 hours, 16 hours, 20 hours and 24 hours, post-dosing. Blood samples (0.25 mL) were collected from the jugular vein. These samples were kept on ice until processed for plasma. Blood samples were centrifuged at 3200 rpm for 5 minutes at approximately 5° C. within 1 hour of collection. Plasma was directly transferred to a 96-well plate tube (0.125 mL). Plug caps were placed on the tubes and the tubes frozen at approximately −70° C. and stored until analysis.
Plasma was collected and analyzed for the presence of Compound I-1 and Intermediate 3 derived from Compound I-1.
Intermediate 3, Compound I-1 and the internal standard (IS, Compound Z) were extracted from plasma by precipitation. Samples were analyzed using liquid chromatography (LC) with tandem mass spectrometric detection (MS/MS) using electrospray ionization. The standard curve range was from 0.1 to 400 ng/mL.
Thawed plasma samples and the required amount of plasma for standards, blanks and dilutions. Prepared crash solution: room temp ACN containing 1 ng/mL Compound Z as Internal Standard. Created a 1× mixed (Intermediate 3 and Compound I-1) standard curve by diluting the 100× stocks (5 uL of each 100× standard into 495 uL of plasma). Transferred 50 uL of each plasma sample/dilution, standard, or blank. Added 200 uL of the crash solution containing IS. Vortexed for 5 minutes. Centrifuged at 16,000 g at room temperature for 10 min. Transferred 200 uL of each supernatant to a plate. Dried under nitrogen in a TurboVap at 55° C. Re-suspended each sample in 50 uL of 0.1% Formic Acid, covered and vortexed. Analyzed by LC-MSMS.

For another series, the target named is T1, HEK (Homo sapiens, UniProt Q02108+Q02153).
T1 construct: sGC enzyme activity values in HEK cells; endogenous in cells; host or cells: HEK cells
T1 sequence (Q02153 1-619): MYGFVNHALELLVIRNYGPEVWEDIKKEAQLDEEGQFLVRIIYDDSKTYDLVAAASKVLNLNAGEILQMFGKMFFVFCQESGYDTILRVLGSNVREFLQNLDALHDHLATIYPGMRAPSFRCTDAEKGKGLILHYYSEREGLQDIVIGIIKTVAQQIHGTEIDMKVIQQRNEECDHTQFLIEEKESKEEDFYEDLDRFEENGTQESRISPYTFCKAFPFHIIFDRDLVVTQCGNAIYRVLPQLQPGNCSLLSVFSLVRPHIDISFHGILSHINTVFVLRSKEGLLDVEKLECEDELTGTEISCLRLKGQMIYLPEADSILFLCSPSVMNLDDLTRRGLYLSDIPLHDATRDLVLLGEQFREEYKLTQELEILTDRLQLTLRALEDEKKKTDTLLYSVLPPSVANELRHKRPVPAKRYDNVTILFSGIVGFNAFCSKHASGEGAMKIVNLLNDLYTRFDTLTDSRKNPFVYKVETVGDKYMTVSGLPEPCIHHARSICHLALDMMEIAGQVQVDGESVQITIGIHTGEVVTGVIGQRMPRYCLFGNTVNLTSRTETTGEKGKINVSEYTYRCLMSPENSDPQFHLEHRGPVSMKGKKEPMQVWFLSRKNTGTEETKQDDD
T1 sequence (Q02108 1-690): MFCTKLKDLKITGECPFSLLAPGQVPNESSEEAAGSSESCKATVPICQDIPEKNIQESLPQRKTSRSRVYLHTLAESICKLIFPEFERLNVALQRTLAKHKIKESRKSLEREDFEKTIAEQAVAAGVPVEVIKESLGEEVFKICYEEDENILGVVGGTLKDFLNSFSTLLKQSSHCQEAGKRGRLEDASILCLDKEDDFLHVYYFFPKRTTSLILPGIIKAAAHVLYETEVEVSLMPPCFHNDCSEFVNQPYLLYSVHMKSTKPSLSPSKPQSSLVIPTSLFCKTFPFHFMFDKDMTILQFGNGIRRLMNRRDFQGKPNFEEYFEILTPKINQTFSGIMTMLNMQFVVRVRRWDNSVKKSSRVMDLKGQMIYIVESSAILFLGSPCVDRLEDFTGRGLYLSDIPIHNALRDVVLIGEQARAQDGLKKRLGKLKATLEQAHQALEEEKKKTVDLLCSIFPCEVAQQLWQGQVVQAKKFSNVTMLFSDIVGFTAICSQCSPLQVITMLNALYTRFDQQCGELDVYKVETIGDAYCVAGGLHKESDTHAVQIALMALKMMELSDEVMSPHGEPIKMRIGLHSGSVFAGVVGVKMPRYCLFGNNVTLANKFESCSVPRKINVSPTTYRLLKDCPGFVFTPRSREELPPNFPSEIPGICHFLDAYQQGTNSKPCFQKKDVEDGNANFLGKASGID
Put plainly: HEK EC50 quoted in rat PO PK table (assay version not stated). It is filed as cell-based. Particulars: listed in rat PO PK table for Intermediate 3.

Setting [2] is: male, Sprague-Dawley, plasma, Compound I-1 1 mg/kg IV in PBS, analyte Compound I-1.

Broadly, the AUC(0-inf) is total exposure, with the tail of the curve extrapolated. The term Cmax denotes the peak of the concentration-time curve. In general, half-life refers to the time in which the quantity being followed falls by half. Low values mean rapid decline, high ones slow decline. Consider `O=P(O)(O)OC(CNc1nc(-c2cc(-c3ccon3)n(Cc3ccccc3F)n2)ncc1F)(C(F)(F)F)C(F)(F)F` [Compound I-1], for which the “prodrug in plasma samples” value in series [1] (following PO dosing of Compound I-1 3.0 mg/kg) is given as “not observed in any plasma samples”. In series [1] (setting [2]), this molecule gave an AUC(0-inf) of 549 ng·h/mL, a Cmax of 2780 ± 2450 ng/mL and a clearance of 34.3 mL/min/kg. Besides, in series [1] (male, Sprague-Dawley, plasma, iv, 1 mg/kg, Compound I-1 1 mg/kg IV in PBS, analyte Compound I-1), the half-life was approximately 9 min.
For orientation: EC50 means the concentration that produces a half-maximal response. Molecule `OC(CNc1nc(-c2cc(-c3ccon3)n(Cc3ccccc3F)n2)ncc1F)(C(F)(F)F)C(F)(F)F` [Intermediate 3] displayed an EC50 at HEK of 0.1 µM.
